The values that follow come from patent publication US11351260B2, “Photocleavable cobalt-nitrosyl complex and nitric oxide carrier containing the same” (DAEGU GYEONGBUK INSTITUTE OF SCIENCE AND TECHNOLOGY, priority 2019, dated 2022).

The subject of the assay is EGFR. In words: EGFR single-particle tracking and diffusion analysis (dark-field, anti-EGFR-AuNP). Format: cell-based. To be noted: ERK-KTR cells; NOExo treatment (complex of Example 1 + hν) or EGF treatment; untreated control 0.071. The text has this: To confirm whether the activation of ERK by NO generated from the complex of Example 1 was induced by other receptors or membrane features, thus perturbing other signaling pathways, such as the MAPK pathway activated by the […] of EGF receptors (EGFRs) or by nonspecific disturbances caused by the formation of cellular membranes like lipid rafts, individual EGFRs in live cells were tracked, and analyzed.
Time-lapse dark-field microscope images were taken every 20 ms for 10 s. Lateral diffusion motion of protein was analyzed by particle trajectories. TrackMate plugin on Image J was used for single-particle tracking and trajectory analysis. For each particle, mean square displacement (MSD) was calculated from the x, y position and time information obtained from trajectory analysis; MSD(t)=<(xi+n−xi)^2+(yi+n−yi)^2>. The MSD versus time intervals were plotted up to the time lag (t) equivalent to 1/10th of the trajectory duration, then fitted to a linear equation corresponding to the Brownian motion. Diffusion coefficient (D) was calculated from the slope of the first ten points of the MSD plot; MSD=4Dt.
For single-molecule tracking of EGFR, anti-EGFR (EGFR anti-bodies) was conjugated to gold nanoparticles (AuNPs, 50 nm in diameter) using the biotin-neutravidin interaction (FIG. 8A), achieving high specificity (FIG. 8B). […]

Regarding “epidermal growth factor [EGF, reference compound]”, the “diffusion coefficient of EGFR (DEGFR)” value turned out to be 0.017 μm^2 s^−1.
